Tests used:
[1] = test system: Osteoblasts (Calvarial cells); settings: ICR, mouse, 72 h, 1 μM
[2] = test system: formation of osteoclasts in co-culture of bone marrow cells and osteoblasts; test: Osteoclastogenesis inhibition via co-culture system (TRAP staining); assay type: cell-based, mice; settings: Mus musculus, Osteoclast, 168 h; 1 μM compound, 7 days co-culture, TRAP-positive multinucleated osteoclasts vs vehicle control
Outline: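 Bone marrow cells from male ddY mice were co-cultured with osteoblasts for 7 days in α-MEM/10% FBS with 10^−8 M 1α,25-dihydroxyvitamin D3 and dexamethasone. Compound was present at 1 μM final and refreshed every 2–3 days. TRAP-positive cells with 6–7 nuclei were counted, with % inhibition relative to DMSO vehicle (n=4).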

[3] = test system: Osteoblasts (Calvarial cells); test: Alkaline phosphatase (ALP) activity in osteoblasts (Calvarial cells); assay type: cell-based, mice; settings: Mus musculus, 72 h; 1 μM compound, 3 days, Calvarial cell; read-out: ALP activity (1 μM, % of Control) Calvarial cell
Outline: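 Primary calvarial osteoblasts or MC3T3-E1 cells in α-MEM with 10% FBS were treated with 1 μM compound, against a 0.1% DMSO vehicle. Cell lysates were incubated with p-nitrophenylphosphate at 37° for 30 minutes and read at 405 nm. ALP activity was expressed as p-nitrophenol/μg protein/min and reported as % change versus vehicle.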

MC3T3-E1 cells = test: Alkaline phosphatase (ALP) activity in MC3T3-E1 cells; assay type: cell-based; settings: Mus musculus, 72 h; 1 μM compound, 3 days, MC3T3-E1 cell; read-out: ALP activity (1 μM, % of Control) MC3T3-E1 cell
Description: Differentiation and activity of osteoblasts were indirectly evaluated by measuring an ALP activity having a close relationship with osteogenesis.
Osteoblasts (Calvarial cells) prepared in Experimental Example 1 and MC3T3-E1 cells (available from RIKEN Cell Bank, Japan) were collected in α-MEM supplemented with 10% FBS, followed by cell counting. The cells were dispensed into 24-well cultureware at a density of 2×10^4 cells/well. After culturing of the cells for 24 hours, the culture media were discarded and replaced with fresh media in which test compounds were diluted to a concentration of 1 μM (1 mL/well). In addition, the vehicle control group containing 0.1% DMSO was also treated. […] When the experiment was terminated, the supernatant was removed and the cells were washed three times with cold phosphate buffer at 4°. 0.2% Triton X-100 was added to the washed cells which were then subjected to three cycles of freezing at −70° and thawing at room temperature for the complete lysis of cells. The cell extracts were pooled and centrifuged to collect the cell supernatant which was used for the measurement of ALP activity and proteins. The protein concentration was measured using a BCA assay kit (manufactured by Sigma-Aldrich). For the measurement of ALP activity, p-nitrophenylphosphate was added to the cell supernatant which was then incubated at 37° for 30 minutes, and the reaction was terminated with the addition of 50 μL of 0.2N sodium hydroxide. The standard curve was plotted at the absorbance of 405 nm using p-nitrophenol as a standard material and then the absorbance of test materials thus reacted was measured to determine the production amount of p-nitrophenol.
The ALP activity was calculated by dividing the amount of p-nitrophenol produced from each test material by the protein amount and the reaction time. Therefore, the unit of ALP activity was given in terms of p-nitrophenol/μg protein/min. The results are given in Tables 28-1 and 28-2 where the ALP activity unit of each test material was given in terms of % change through the comparison between the individual test materials and the vehicle control group.

Compound | Cell viability (%) Calvarial cell [1] | inhibition at 1 µM [2] | activity at 1 µM [3] | activity at 1 µM (MC3T3-E1 cells)
COc1ccc(Nc2nc(NCCCn3ccnc3)ccc2[N+](=O)[O-])cc1 [Compound 25, 2-(4-methoxyphenylamino)-6-[(3-imidazol-1-yl)propylamino]-3-nitropyridine] | 101% | 98% | 126% | 148%
CC(C)(C)c1ccc(Nc2nc(NCCc3ccccn3)ccc2[N+](=O)[O-])cc1 [Compound 40, 2-[4-(t-butyl)phenylamino]-6-[2-(2-pyridyl)ethylamino]-3-nitropyridine] | 82% | 89% | 126% | 210%
N#Cc1ccc(Nc2nc(NCc3ccncc3)ccc2[N+](=O)[O-])cc1 [Compound 50, 2-(4-cyanophenylamino)-6-[(4-pyridyl)methylamino]-3-nitropyridine] | 115% | 94% | 149% | 177%
N#Cc1cccc(Nc2nc(NCCCn3ccnc3)ccc2[N+](=O)[O-])c1 [Compound 53, 2-[3-cyanophenylamino]-6-[(3-imidazol-1-yl)propylamino]-3-nitropyridine] | 115% | 97% | 134% | 121%

From patent US20110306606A1, “NOVEL 2,6-SUBSTITUTED-3-NITROPYRIDINE DERIVATIVE, METHOD FOR PREPARING SAME, AND PHARMACEUTICAL COMPOSITION INCLUDING SAME” (priority 2008, published 2011)
